Data: patent publication US20030013688A1, “Synergistic combination of pravastatin and aspirin and method” (priority 2001, published 2003)

Test system: any cardiac event, including ischemic stroke, or death
Test: Bayesian hierarchical (Cox proportional hazards, Models 1 and 2) analysis of five secondary prevention studies (CARE, LIPID, PLAC I, PLAC II, REGRESS) for synergy between pravastatin and aspirin
Assay type: in vivo, human
Conditions: for posterior mean of the coefficient γT: Model 1, logarithmic scale, relative to placebo (γplacebo=0)
Protocol: In this study 40 mg pravastatin and 81 mg aspirin and higher were employed.
The primary endpoint was (i) any cardiac event, including ischemic stroke, or death. Secondary endpoints were individual components of the primary endpoint: (ii) any cardiac event, excluding stroke, (iii) any myocardial infarction, (iv) ischemic stroke, and (v) death. Analyses of these secondary endpoints as opposed to the primary endpoint are subject to greater uncertainty because the numbers of events are smaller. Therefore, conclusions for the secondary endpoints are likely to be less compelling.
The five studies available for addressing the synergy between pravastatin and aspirin for secondary prevention are listed and described in Table 1. Patients in all five studies were randomized to pravastatin vs placebo. All patients in all five studies are included in the primary analysis.
These may be due to random variability or to differences in patient populations. To take these differences into account, the role of patient characteristics was modeled, namely, the following covariates were considered: age, gender, smoking status, existence of coronary artery disease, and baseline values of LDL and HDL cholesterols, triglycerides, and diastolic and systolic blood pressures. In addition, the studies were conducted under different circumstances and by different investigators and even in different countries. Therefore, there may be additional study-specific differences that cannot be explained by differences in measured patient covariates. To allow for the possibility that treatment effects depend on study even after accounting for patient characteristics, Bayesian hierarchical modeling was used in which the study is one level of experimental unit and patient-within-study is a second level.
A brief introduction to Bayesian hierarchical modeling and a description of standard Bayesian hierarchical Cox proportional hazards model (Model 1) are set out below. An extension of the standard model that allows for treatment-specific time-varying hazards (Model 2) is also described. In addition, the sensitivity of the conclusions to the prior distribution of the parameter that regulates the extent of pooling of the various studies is addressed.
Model 1: Bayesian Hierarchical Analysis Using Cox Proportional Hazards Model
The Cox proportional hazards model takes hazard H to be of the form
where Z is the set of patient-specific covariates (listed above), β is the vector of regression coefficients and λ0(t) is the baseline hazard function. Treatment and study are considered separately from covariates Z, as follows: […]
Assessing the probability of synergy is straightforward in Model 1 when using Markov chain Monte Carlo (MCMC) methods. […] During each iteration of MCMC, this synergy condition is assessed. […]

SMILES	posterior mean of the coefficient γT (primary endpoint (All events))	performance in comparison with placebo alone (primary endpoint (All events), Models 1 and 2)	estimated event rate (hazard) compared among treatment arms (stroke, Model 2, year 1)
CC(=O)Oc1ccccc1C(=O)O [aspirin, acetylsalicylic acid]	−0.0022	essentially the same	lowest estimated event rate
CC[C@H](C)C(=O)O[C@H]1C[C@H](O)C=C2C=C[C@H](C)[C@H](CC[C@@H](O)C[C@@H](O)CC(=O)O)[C@H]21 [pravastatin]	−0.0985		
